Tests used:
C208A-Rosetta = assay: Microdilution MIC assay; type: cell-based, E. coli; conditions: C208A-Rosetta
Experimental: For the test of C208A-Rosetta, the growth condition briefly goes as follow. Overnight culture of C208A-Rosetta was diluted into fresh LB medium (1000-fold) and regrew to OD ~0.6. The overexpression of NDM-1-C208A was induced by addition of 200 μM isopropyl β-D-1-thiogalactopyranoside (IPTG) for 18 h at 25 °C. The following susceptibility test was performed as described in the Microdilution MIC and MBC assay section in the methodology by using the resulting bacterial pellets with the supplementation of 200 μM IPTG.
(§1) Other procedures were kept strictly the same.

E. coli ATCC 25922 = assay: Microdilution MIC assay; type: cell-based
From the text: as §1

E. coli Rosetta(DE3) = assay: Microdilution MIC assay; type: cell-based
From the text: as §1

E. coli BL21(DE3) = assay: Microdilution MIC assay; type: cell-based
From the text: as §1

[1] = design: method as in earlier work; conditions: treatment of peptic ulcer disease; cited from earlier work
IMP-4 = assay: IC50 enzyme inhibition assay; type: biochemical; conditions: MER substrate
Experimental: Freshly prepared 50 nM of Zn2-NDM-1, Zn2-VIM-2, or Zn2-IMP-4 in 50 mM HEPES/Na pH 7.0, 100 mM NaCl were first incubated with various concentrations of CBS for 1 h at 25 °C, then mixed with equal volume of 0.2 mM MER. The assay was performed in a 1 cm quartz cuvette using the kinetic mode on a Varian Cary50 UV-visible spectrophotometer at 25 °C. The decrease in absorbance at 300 nm due to ring-opening of MER was monitored every second for a duration of 10 min until the reaction was completed. The initial rates were extracted and calculated from each reaction curves for fitting IC50 curves.

[2] = test system: NDM-K. pneumonia (NDM-1^+); assay: Microdilution MIC/MBC and checkerboard assay; type: cell-based, Klebsiella pneumonia
NDM-HK [3] = assay: Time kill assay; type: cell-based, E. coli; conditions: MER 24 μg mL^-1 + CBS 64 μg mL^-1, 24 h, exponential phase
Experimental: Time kill assay was used to further explore the synergy between MER and Bi(III) compounds. In a typical assay, NDM-HK was cultured overnight and diluted 1:250 into LB broth at 37 °C for 3 h to reach log phase. The initial bacterial density was adjusted to ~10^7 CFU mL^−1 and then exposed to MER, Bi(III) compounds either alone or in combination. LB broth with no drugs served as a control. Aliquots of bacterial suspension were withdrawn at different time intervals (0, 1, 2, 4, 6, 8, and 24 h) for inspection of bacterial viability by agar plating. The concentrations of the drugs used in the test are 24 µg mL^−1 for MER, 64 µg mL^−1 for CBS, and 32 µg mL^−1 for Bi(NAC)3. Data from three independent experiments were averaged and plotted as log10 CFU mL^−1 vs. time (h) for each time point over 24 h. All assays were triplicated and performed three times on different days.

NDM-HK [4] = assay: Murine peritonitis infection, mucin-free model; type: in vivo, BALB/c mice; conditions: without mucin; MER 50 mg kg^−1 + CBS 50 mg kg^−1, up to 86 h
From the text: All experiments were approved by, and performed in accordance with the guidelines approved by Committee on the Use of Live Animals in Teaching and Research (CULATR), the University of Hong Kong. A total of 6–8-week-old, female BALB/c mice (18–22 g) were purchased from Charles River Laboratories, Inc. and were used in all mouse studies. The animals were randomized to cages for each experiment.
In mucin-free survival experiment, the mice were infected with a dose of 5 × 10^7 CFU of NDM-HK in PBS. The mice received monotherapy of MER (50 mg kg^−1) or CBS (50 mg kg^−1), or combination therapy 0.5 h post infection (n = 5 for each group). Other experimental operations and conditions were kept the same as that in mucin-assisted model. Body weights and mice survival were monitored for endpoint till endpoint of the experiment.

NDM-1 = NDM-1 (Klebsiella pneumoniae, UniProt C7C422); assay: Zinc displacement analysis by ICP-MS; type: binding; conditions: Zn-bound NDM-1 20 μM + increasing CBS
Experimental: To monitor the displacement of Zn(II) by Bi(III), ICP-MS was employed to accurately quantify ^209Bi and ^66Zn contents in various purified NDM-1 samples. Purified Zn-bound-NDM-1 (20 μM) dissolved in trace-metal-free ICP-MS buffer containing 50 mM HEPES, pH 7.0, was incubated with various concentrations of CBS at 25 °C for 5 h with mild shaking. The samples were subsequently dialyzed in ICP-MS buffer to remove unbound-metal ions and were then acidified and subsequently analyzed using an ICP-MS spectrometer (Agilent 7500a, Agilent Technologies, CA, USA) with ^115In as an internal standard for ^209Bi, ^66Zn, and ^34S contents, which are used to quantify protein concentration.

Sequence of NDM-1 (C7C422 29-270, looked up, species assumed): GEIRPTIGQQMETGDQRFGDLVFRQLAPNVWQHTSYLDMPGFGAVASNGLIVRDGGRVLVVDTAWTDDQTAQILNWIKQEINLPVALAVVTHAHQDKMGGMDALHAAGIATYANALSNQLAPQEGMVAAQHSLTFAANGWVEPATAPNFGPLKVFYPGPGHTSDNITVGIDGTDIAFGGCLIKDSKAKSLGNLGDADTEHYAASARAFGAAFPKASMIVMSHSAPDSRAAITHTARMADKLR

Substance: colloidal bismuth subcitrate [CBS]
- MIC of MER in combination with CBS at 16 µg mL-1 (C208A-Rosetta): 0.12 µg/mL
- MIC of MER in combination with CBS at 32 µg mL-1 (C208A-Rosetta): 0.12 µg/mL
- MIC of MER in combination with CBS at 16 µg mL-1 (E. coli ATCC 25922): 0.03 µg/mL
- MIC of MER in combination with CBS at 32 µg mL-1 (E. coli ATCC 25922): 0.03 µg/mL
- MIC of MER in combination with CBS at 256 µg mL-1 (E. coli ATCC 25922): 0.03 µg/mL
- MIC of MER in combination with CBS at 16 µg mL-1 (E. coli Rosetta(DE3)): 0.03 µg/mL
- MIC of MER in combination with CBS at 32 µg mL-1 (E. coli Rosetta(DE3)): 0.03 µg/mL
- MIC of MER in combination with CBS at 256 µg mL-1 (E. coli Rosetta(DE3)): 0.03 µg/mL
- MIC of MER in combination with CBS at 16 µg mL-1 (E. coli BL21(DE3)): 0.03 µg/mL
- MIC of MER in combination with CBS at 32 µg mL-1 (E. coli BL21(DE3)): 0.03 µg/mL
- MIC of MER in combination with CBS at 256 µg mL-1 (E. coli BL21(DE3)): 0.03 µg/mL
- intoxication at recommended dosage [1]: No intoxication has been documented
- IC50 (IMP-4; IMP-4 50 nM, 1 h preincubation): 700 ± 80 nM
- maximal inhibition of MBL activity (IMP-4; IMP-4, dose-dependent): approximately 90%
- MBC of MER in combination with compound at 32 µg mL^-1 ([2]; NDM-K. pneumonia (NDM-KP)): 8 µg/mL
- MIC of MER in combination with compound at 32 µg mL^-1 ([2]; NDM-K. pneumonia (NDM-KP)): 4 µg/mL
- MBC of Bi(III) compound alone ([2]; NDM-KP): > 256 µg/mL
- MIC of Bi(III) compound alone ([2]; NDM-KP): > 256 µg/mL
- FICI ([2]; NDM-KP, MER + compound, 256 µg mL^-1 set as MIC of Bi(III)): 0.375
- lowering of NDM-HK population in time kill curves (NDM-HK [3]): more than 1000 fold
- mice survived, MER and CBS co-administrated (NDM-HK [4]): 40%
- Bi(III) bound to the enzyme (NDM-1): 0.96 molar equivalents
- Zn(II) displaced from NDM-1 (NDM-1): ca. 2.13 molar equivalents

From publication PMC5789847, “Bismuth antimicrobial drugs serve as broad-spectrum metallo-β-lactamase inhibitors” (Nature Communications, 2018)
